One series has as its target T1, human DGAT1 (Homo sapiens, UniProt O75907).
T1 construct: made in house; host or cells: insect cells (sf9, sf21 or High Five) infected with baculovirus; total cell membranes
T1 sequence (O75907 1-488): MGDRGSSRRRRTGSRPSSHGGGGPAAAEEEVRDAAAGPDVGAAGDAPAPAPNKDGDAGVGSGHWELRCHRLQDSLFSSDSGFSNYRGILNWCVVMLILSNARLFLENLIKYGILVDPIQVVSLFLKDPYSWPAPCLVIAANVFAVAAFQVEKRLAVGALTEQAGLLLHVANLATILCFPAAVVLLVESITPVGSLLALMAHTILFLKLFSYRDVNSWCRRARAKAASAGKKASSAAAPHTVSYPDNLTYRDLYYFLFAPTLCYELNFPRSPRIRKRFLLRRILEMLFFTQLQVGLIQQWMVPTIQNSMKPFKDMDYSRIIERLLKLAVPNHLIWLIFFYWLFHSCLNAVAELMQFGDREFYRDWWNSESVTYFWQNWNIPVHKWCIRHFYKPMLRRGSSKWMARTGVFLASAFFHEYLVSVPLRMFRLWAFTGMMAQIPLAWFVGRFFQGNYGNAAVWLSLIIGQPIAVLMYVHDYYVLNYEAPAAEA
Nature of the series: DGAT Scintillation Proximity Assay (SPA) with membranes of insect cells expressing human flagtag DGAT1. Particulars: read-out: hDGAT1 IC50. Format: biochemical. Summed up:
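Membranes (0.2 μg/well) from insect cells expressing human flag-tagged DGAT1 incubated with 10 μM compound and 200 μM dioleoyl glycerol substrate; mercuric chloride as inhibition control. Reaction stopped with WGA SPA beads in mercuric chloride, overnight bead coupling, then scintillation proximity signal read.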
For orientation: Scintillation proximity formats need no separation of bound from free tracer.

Several values for one entry are separate records, joined by “and”; a condition that tells them apart may be missing. Equal values may be shown once.

For `Cc1nc(N)c2c(n1)OC(C)(C)C(c1ccc([C@H]3CC[C@H](CC(=O)N(C)CC(=O)O)CC3)cc1)=N2` [Example 2-143], the melting point lay within 196 to 198 °C. The IC50 at human DGAT1 was below 10 nM.
In the same order, the values of `CC1(C)Oc2ncnc(N)c2N=C1c1ccc([C@H]2CC[C@H](CNS(N)(=O)=O)CC2)cc1` [Example 2-130] are 226 to 227 °C and 10 to 100 nM.
Consider `CC(=O)N[C@H]1CC[C@H](c2ccc(C3=Nc4c(N)ncnc4OC3(C)C)cc2)CC1` [Example 2-209], for which the melting point was above 250 °C. Further, the IC50 at human DGAT1 is 10 to 100 nM.
The corresponding values for `Cc1ccc(S(=O)(=O)NCC[C@H]2CC[C@H](c3ccc(C4=Nc5c(N)ncnc5OC4(C)C)cc3)CC2)cc1` [Example 2-175] are 230 to 231 °C and 10 to 100 nM.
In the same order, the values of `CN(C[C@H]1CC[C@H](c2ccc(C3=Nc4c(N)ncnc4OC3(C)C)cc2)CC1)C(=O)CO` [Example 2-243] are 208 to 210 °C and 10 to 100 nM.
Compound `CC1(C)Oc2ncnc(N)c2N=C1c1ccc([C@H]2CC[C@H](CN3CCC(CCO)CC3)CC2)cc1` [Example 2-227] had a melting point of 198 to 200 °C. Also, on human DGAT1, the IC50 is above 100 nM.
In the same order, the values of `Cc1nc(N)c2c(n1)OC(C)(C)C(c1ccc([C@H]3CC[C@H](CCc4nc(=O)s[nH]4)CC3)cc1)=N2` [Example 2-196] are 211 °C (dec.) and 10 to 100 nM.
As for `CC1(C)Oc2ncnc(N)c2N=C1c1ccc(C2CCN(C(=O)C(=O)O)CC2)cc1` [Example 3], the melting point was 188 to 190 °C and 188.8 to 190.9 °C. For the same compound, the concentration for half-maximal inhibition (IC50) at human DGAT1 is 10 to 100 nM.
Take `CC1(C)Oc2ncnc3[nH]c(=O)n(c23)C1c1ccc(Br)cc1` (stereo not drawn) [Example 2-11]: the melting point was above 220 °C. The IC50 at human DGAT1 was above 100 nM.
In turn, `CC(=O)NC[C@H]1CC[C@H](c2ccc(C3=Nc4c(N)ncnc4OC3(C)C)cc2)CC1` [Example 2-128] came in with a melting point of 253 to 254 °C. Also, the IC50 on human DGAT1 was 10 to 100 nM.
For `CCOC(=O)C1CCN(c2ccc(C3=Nc4c(N)ncnc4OC3(C)C)cc2)CC1` [Example 4-3], the melting point was 176 to 177 °C. The IC50 at human DGAT1 is above 100 nM.
`CN(CC(=O)O)C(=O)[C@H]1CC[C@H](c2ccc(C3=Nc4c(N)ncnc4OC3(C)C)cc2)CC1` [Example 2-219]: the melting point fell in the range of 243 to 248 °C. Also, the IC50 at human DGAT1 is 10 to 100 nM.
The corresponding values for `Cc1nc(N)c2c(n1)OC(C)(C)C(c1ccc([C@H]3CC[C@H](Cc4nn[nH]n4)CC3)cc1)=N2` [Example 2-137] are above 250 °C and below 10 nM.
In the same order, the values of `CCCc1ccc(C2=Nc3c(N)ncnc3OC2)cc1` [Example 1-20] are 189 to 192 °C and above 100 nM.
As for `CC1(C)Oc2ncnc(N)c2N=C1c1ccc([C@H]2CC[C@H](CCNS(C)(=O)=O)CC2)cc1` [Example 2-173], the melting point was in the range of 218 to 219 °C. For the same compound, the IC50 on human DGAT1 was in the range of 10 to 100 nM.
`CCOc1ccc(C2=Nc3c(N)ncnc3OC2(C)C)cc1` [Example 2-38]: the melting point lay in the range of 189 to 190 °C. In addition, the IC50 on human DGAT1 was above 100 nM.
Regarding `CC1(C)Oc2ncnc(N)c2N=C1c1cccc(Cl)c1` [Example 5], the melting point was 117 to 133 °C and 117.2 to 133.4 °C. For the same compound, the IC50 on human DGAT1 was above 100 nM.
`Cc1nc(N)c2c(n1)OC(C)(C)C(c1ccc([C@H]3CC[C@H](CCC(=O)Nc4nn[nH]n4)CC3)cc1)=N2` [Example 2-201] had a melting point above 250 °C. In addition, the IC50 at human DGAT1 was below 10 nM.
`Cc1nc(N)c2c(n1)OCC(c1ccc(Br)cc1)N2` (stereo not drawn) [Example 1-34]: the melting point is 232 to 233 °C. Besides, the IC50 at human DGAT1 was above 100 nM.
Regarding `CCCNC(=O)CC[C@H]1CC[C@H](c2ccc(C3=Nc4c(N)ncnc4OC3(C)C)cc2)CC1` [Example 2-177], the melting point lay in the range of 198 to 200 °C. The IC50 at human DGAT1 lay in the range of 10 to 100 nM.
Compound `Cc1nc(N)c2c(n1)OC(C)(C)C(c1ccc([C@H]3CC[C@H](CC(=O)NCC(N)=O)CC3)cc1)=N2` [Example 2-142] returned a melting point of 142 to 144 °C. Besides, at human DGAT1, the IC50 is 10 to 100 nM.
On to `CC1(C)Oc2ncnc(N)c2N=C1c1ccc([C@H]2CC[C@H](CC3SC(=O)NC3=O)CC2)cc1` (stereo partly drawn) [Example 2-64], for which the melting point was above 230 °C. Besides, on human DGAT1, the IC50 was in the range of 10 to 100 nM.
`Cc1nc(N)c2c(n1)OC(C)(C)C(c1ccc([C@H]3CC[C@H](CC(=O)O)CC3)c(F)c1)=N2` [Example 6-9] gave a melting point above 269 °C. In addition, the IC50 at human DGAT1 is below 10 nM.
`CC1(C)Oc2ncnc(N)c2N=C1c1ccc([C@H]2CC[C@H](CN3CCN(C(=O)CO)CC3)CC2)cc1` [Example 2-247]: the melting point fell in the range of 205 to 206 °C. The IC50 on human DGAT1 fell in the range of 10 to 100 nM.
The corresponding values for `CC1(C)Oc2ncnc(N)c2N=C1c1ccc([C@H]2CC[C@H](CC(=O)N3CCC(CCO)CC3)CC2)cc1` [Example 2-96] are 112 to 113 °C and 10 to 100 nM.
On to `CC1(C)Oc2ncnc(N)c2N=C1c1ccc([C@H]2CC[C@H](CC(=O)CO)CC2)cc1` [Example 2-110], for which the melting point lay in the range of 155 to 156 °C. The IC50 at human DGAT1 was in the range of 10 to 100 nM.
The compound `CC1(C)Oc2ncnc(N)c2N=C1c1ccc([C@@H]2CCC[C@H](CC(=O)O)C2)cc1` [Example 2-126] showed a melting point of 234 to 235 °C. The IC50 at human DGAT1 is 10 to 100 nM.
`CC1(C)Oc2ncnc(N)c2N=C1c1ccc(-c2cccnc2)cc1` [Example 2-29] returned a melting point of 231 to 232 °C. In addition, the IC50 on human DGAT1 is above 100 nM.
In the same order, the values of `CC1(C)Oc2ncnc(N)c2N=C1c1ccc([C@H]2CC[C@H](CC(=O)N3C[C@@H](O)[C@@H](O)C3)CC2)cc1` [Example 2-106] are 250 to 252 °C and 10 to 100 nM.
In the same order, the values of `CC1(C)Oc2nc(C(F)(F)F)nc(N)c2N=C1c1ccc([C@H]2CC[C@H](Cc3nc(=O)o[nH]3)CC2)c(Cl)c1` [Example 6-25] are 236 to 237 °C and 10 to 100 nM.
The corresponding values for `Cc1nc(N)c2c(n1)OC(C)(C)C(c1ccc([C@H]3CC[C@H](CNC(=O)C(O)C(C)(C)CO)CC3)cc1)=N2` (stereo partly drawn) [Example 2-163] are 219 to 221 °C and 10 to 100 nM.
The compound `Nc1ncnc2c1N=C(c1ccc([N+](=O)[O-])cc1)CO2` [Example 1-13] registered a melting point above 250 °C. In addition, the IC50 at human DGAT1 was above 100 nM.
The corresponding values for `Cc1nc(N)c2c(n1)OC(C)(C)C(c1ccc([C@H]3CC[C@H](CN4CC(=O)NC4=O)CC3)cc1)=N2` [Example 2-159] are 148 °C (dec.) and 10 to 100 nM.
With `CC1(C)Oc2ncnc(N)c2N=C1c1ccc([C@H]2CC[C@H](NS(N)(=O)=O)CC2)cc1` [Example 2-218], the melting point is 212 °C. For the same compound, the IC50 at human DGAT1 lay within 10 to 100 nM.
The corresponding values for `Cc1nc(N)c2c(n1)OC(C)(C)C(c1ccc([C@H]3CC[C@H](C(=O)O)CC3)cc1)=N2` [Example 2-255] are above 250 °C and 10 to 100 nM.
Compound `Cc1nc(N)c2c(n1)OC(C)(C)C(c1ccc([C@H]3CC[C@H](CCC(=O)NS(C)(=O)=O)CC3)cc1)=N2` [Example 2-192] returned a melting point above 250 °C. The IC50 on human DGAT1 was below 10 nM.
In the same order, the values of `Nc1ncnc2c1N=C(c1ccncc1)CO2` [Example 1-18] are above 220 °C and above 100 nM.
`Nc1ncnc2c1N=C(c1ccccn1)CO2` [Example 1-16] returned a melting point of 215 °C. The IC50 on human DGAT1 was above 100 nM.
The corresponding values for `CCn1c(C[C@H]2CC[C@H](c3ccc(C4=Nc5c(N)nc(C)nc5OC4(C)C)cc3)CC2)n[nH]c1=O` [Example 2-156] are above 250 °C and 10 to 100 nM.
`CN(CC(=O)O)C(=O)[C@H]1CC[C@H](c2ccc(C3=Nc4c(N)ncnc4OC3(C)C)cc2)CC1` [Example 2-214] displayed a melting point above 250 °C. The IC50 at human DGAT1 is below 10 nM.
In the same order, the values of `CC1(C)Oc2ncnc(N)c2N=C1c1ccc([C@H]2CC[C@H](C(=O)N3CCCCC3)CC2)cc1` [Example 2-236] are 220 to 224 °C and 10 to 100 nM.
The corresponding values for `CC1(C)Oc2ncnc(N)c2N=C1c1ccc([C@H]2CC[C@H](C(=O)N3CCCC3)CC2)cc1` [Example 2-235] are 201 to 202 °C and 10 to 100 nM.
`Cc1csc(NCC[C@H]2CC[C@H](c3ccc(C4=Nc5c(N)ncnc5OC4(C)C)cc3)CC2)n1` [Example 2-184] had a melting point above 250 °C. At human DGAT1, the IC50 lay in the range of 10 to 100 nM.
The compound `Nc1ncnc2c1NC(c1ccc(Cl)cc1Cl)CO2` (stereo not drawn) [Example 1-37] yielded a melting point above 220 °C. At human DGAT1, the IC50 was above 100 nM.
With `CC1(C)Oc2ncnc(N)c2N=C1c1ccc([C@H]2CC[C@H](Cc3cnc(-c4ccccc4)[nH]3)CC2)cc1` [Example 2-123], the melting point was 230 to 231 °C. Also, the IC50 at human DGAT1 was in the range of 10 to 100 nM.

Usually IC50 stands for the concentration that gives 50% inhibition. One may read the melting point as the temperature of the solid-liquid transition.
